Laboratory results from PMC10318527, “Utilization of dietary mixed-linkage β-glucans by the Firmicute Blautia producta” (The Journal of Biological Chemistry, 2023).

Assays:
BPGH16 mutant H398A = experiment: Kinetics of BPGH16 mutant H398A (DNS assay); format: biochemical, Blautia producta ATCC 27340
Protocol: (§1) The residues R331, L358, E379, D381, E384, W362, and H398 of BpGH16MLG were mutated to Ala by the Q5Site-Directed Mutagenesis Kit (New England Biolabs, UK, catalogue no. E0554S). Wild-type plasmid BpGH16-pET28a(+) was used as a template, and mutagenic forward and reverse primers were developed using NEBaseChanger with subtle modifications (Table S4). A 25 μl PCR cocktail was prepared for mutating each residue. The final concentration of Q5 Hot Start High-Fidelity 2X Master Mix was 1X, each primer was at 0.5 μM, the amount of used template was 20 ng, and the rest of the volume was made up of nuclease-free water. PCR was executed using the following conditions-initial denaturation was performed at 98 °C for 1 min, for each cycle-denaturation, annealing, and extension (72 °C) were set for 10 s, 20 s, and 7 min, respectively. […] The mutant protein was then expressed as per the protocol mentioned earlier, and kinetics were performed with barley β-glucan.
(§2) Reactions were performed in 100 μl volume mixture using recombinant enzyme (final concentration at 0.1 mg/ml) in 50 mM sodium phosphate buffer (pH 5.7) at 37 °C for 1 h of incubation. […] Enzymatic assays were determined with 3,5- dinitrosalicylic acid (DNS) assay ([85]). […] Consequently, recorded the developed color spectrophotometrically at 575 nm ([85]). […]

BPGH16 mutant E379A = experiment: Kinetics of BPGH16 mutant E379A (DNS assay); format: biochemical, Blautia producta ATCC 27340
Protocol: as §1, §2

BoGH16MLG = tested on: BoGH16MLG; set-up: method as in PMID 29141231; conditions: BoGH16MLG with barley MLG, no unit, cited from earlier work
BpGH94MLG = target: T1, BpGH94MLG (Blautia producta, UniProt A0A7G5MNS2); experiment: Phosphorolysis activity of BpGH94MLG on substrates (TLC); format: biochemical, Blautia producta ATCC 27340; conditions: inorganic phosphate, 37 °C
T1 sequence (A0A7G5MNS2 1-804): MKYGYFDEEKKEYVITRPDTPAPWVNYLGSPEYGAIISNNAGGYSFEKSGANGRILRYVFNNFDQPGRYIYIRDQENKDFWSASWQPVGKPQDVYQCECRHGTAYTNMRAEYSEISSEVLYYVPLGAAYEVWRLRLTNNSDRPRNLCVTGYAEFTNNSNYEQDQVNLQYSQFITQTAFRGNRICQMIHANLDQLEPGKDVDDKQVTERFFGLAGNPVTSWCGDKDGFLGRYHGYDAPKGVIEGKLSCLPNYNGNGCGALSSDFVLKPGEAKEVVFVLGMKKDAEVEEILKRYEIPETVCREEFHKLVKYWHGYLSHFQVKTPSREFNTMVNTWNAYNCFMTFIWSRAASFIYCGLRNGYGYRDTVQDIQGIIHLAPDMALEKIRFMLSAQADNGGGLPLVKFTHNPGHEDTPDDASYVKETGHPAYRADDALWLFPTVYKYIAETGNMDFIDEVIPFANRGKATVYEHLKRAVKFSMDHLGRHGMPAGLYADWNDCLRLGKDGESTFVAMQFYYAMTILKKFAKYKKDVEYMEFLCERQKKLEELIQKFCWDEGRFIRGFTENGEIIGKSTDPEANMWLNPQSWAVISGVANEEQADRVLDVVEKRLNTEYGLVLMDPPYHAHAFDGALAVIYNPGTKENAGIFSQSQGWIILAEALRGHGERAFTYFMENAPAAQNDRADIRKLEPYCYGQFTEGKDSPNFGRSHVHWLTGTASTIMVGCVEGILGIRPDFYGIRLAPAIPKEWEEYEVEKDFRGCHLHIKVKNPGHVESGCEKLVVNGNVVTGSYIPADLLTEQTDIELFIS
Protocol: TLC was used for analyzing enzymatic actions. […] Kinetics parameters for BpGH94MLG were determined with G4G3G, G4G4G3G and cellotriose, following a p-hydroxybenzoic acid hydrazide (PAHBAH) reducing sugar assay ([69]).

Substance: Barley β-glucan
- kcat (BPGH16 mutant H398A): 0 s⁻¹
- kcat (BPGH16 mutant E379A): 0 s⁻¹
- kcat (BoGH16MLG; in 1/s): 85.8 ± 4.6
- Km (BoGH16MLG; in mg/mL): 0.364 ± 0.051
- phosphorolysis activity of BpGH94MLG (in words) (BpGH94MLG): catalyzed phosphorolysis
